# Publication PMC10285648, “iTAG an optimized IMiD-induced degron for targeted protein degradation in human and murine cells” (iScience, 2023)
# Columns and labels:
# [1] = system: RBM39, CDK9, MAPK9, HPRT1, SMS, MAVS (tagged); experiment: Western blotting, iTAG versus dTAG at 24h on six targets in SUM159; format: cell-based, human; conditions: SUM159, 24h
# Protocol: Subsequently, we evaluated the extent of degradation induced by the two tagging systems. For this purpose, we tested targets present in different subcellular localizations at a longer time point (24h): RBM39 (-nuclear 59.3kDa-), CDK9 (Cyclin-dependent kinase 9 -nuclear 42.7kDa-), MAPK9 (Mitogen-activated protein kinase 9 -nuclear 48.1 kDa-), HPRT1 (Hypoxanthine Phosphoribosyltransferase 1-cytoplasmic 24.5kDa-), SMS (Spermine synthase –cytoplasmic 41.2kDa-), and MAVS (Mitochondrial antiviral-signaling protein -mitochondrial 56.5kDa-) (Figure S7).
# Flag-HA-DCD23-EGFP = experiment: Degradation of Flag-HA-DCD23-EGFP in murine cells; format: cell-based, mouse; conditions: for DC50 / DCmax: 24h, flow cytometry
# Protocol: Given the high degradation efficiency of DCD23 in human cells, we sought to test the applicability of this system in murine cells.
# The protein lysates were probed for EGFP using western blotting. […] EGFP signal was then measured using flow cytometry. (3 independent experiments, normalized to the control and represented as mean ± SD). […] Data are plotted as Log2 fold change relative to DMSO versus Log10 of p value.
# As an additional validation of iTAG (DCD23) induced degradation, we tested the same constructs in murine colorectal carcinoma cells (CT26) where we saw similar loss of EGFP with a panel of IMiD/CeLMODs (Figure S9B).
# cMYC-EGFP-DCD23 = experiment: Degradation of cMYC-EGFP-DCD23 in HMEC (flow cytometry, western blotting); format: cell-based, human
# Source text: To systematically delineate the optimal DCD/degrader combination for targeted protein degradation, we undertook a matrix approach evaluating all 23 DCD tags against 6 small molecule degraders. […] To control for any potential off-target effects of the IMiD/CeLMOD agents that could indirectly affect the target of interest, we designed controls in which the specific DCD and the EGFP sequences were interspaced by a P2A ribosomal “skipping” sequence,[32] leading to separate translation of the DCD and the target protein (Figure 1A). These constructs were then inserted into a doxycycline-inducible lentiviral vector system and stably expressed in hTERT immortalized human mammary epithelial cells (HMEC), a suitable model to assess the functional consequences of cMYC degradation. cMYC was tagged at the C-terminus end for the initial screening experiments.
# Figure 1 Design and experimental evaluation of the DCD tags (A) Representation of the experimental pipeline used to evaluate the different DCD constructs. […] Median EGFP intensity was measured in each condition using flow cytometry (3 independent experiments, normalized to the control and represented as mean ± SD). […] The protein lysates were probed for cMYC levels using western blotting. […] Target loss was evaluated either by measuring EGFP median intensity using flow cytometry or western blotting for cMYC protein (3 independent experiments, normalized to the control and represented as mean ± SD). […] Target loss was evaluated as in (D) (3 independent experiments, normalized to the control and represented as mean ± SD). […] Protein lysates were collected and probed for cMYC and p21 using western blotting. […] Protein lysates were collected and probed for cMYC and p21 using western blotting. […] These were left out as controls with no test substance.
# Following degrader treatment cells were collected and DAPI was added to the cell suspension at 1 μg/mL to allow the exclusion of dead cells. EGFP signal was measured using BD LSR II flow cytometer (BD Biosciences). FlowJo 10 Software (FlowJo) was used for data processing.
# Cells were lysed with SDS lysis buffer (2% SDS, 10% Glycerol, 50mM Tris pH 6.8) and boiled at 95°C for 30min. Protein concentration was measured using Pierce BCA Protein Assay Kit (ThermoFischer) following manufacturer’s recommendations. Samples were ran in NuPAGETM 10% Bis-Tris Midi electrophoresis gels (Invitrogen) using NuPAGETM MES SDS running buffer (ThermoFischer Scientific).
# For western blotting membranes were blocked in a solution of 5% (w/v) bovine serum albumin (BSA; Sigma-Aldrich) dissolved in TBS-0.1% Tween 20 (Sigma-Aldrich) then incubated at 4°C overnight with the primary antibodies diluted in 5% (w/v) BSA/TBS-T. The membranes where then washed and incubated with anti-mouse and/or anti-rabbit secondary antibodies (LI-COR Biosciences) for 2h at RT diluted in 5% (w/v) BSA/TBS-T then washed and imaged using the LI-COR Odyssey (LI-COR Biosciences). Images were analyzed using Image Studio Lite software (LI-COR Biosciences).
# [2] = system: HMEC, HEK293T, MDA-MB-231, Kelly cells; experiment: Cell viability assay (CellTiter-Blue); format: cell-based, human; conditions: 5 days treatment
# Protocol: By endpoint, CellTiter-Blue reagent (Promega) was added to each well, incubated for 3 h at 37°C and absorbance was measured with a plate reader at 570nm. Average background absorbance value was subtracted from all readings when plotting the viability curve.
# FLuc-EGFP-DCD23 = experiment: In vitro luciferase and EGFP signal in MDA-MB-231 (FLuc-EGFP-DCD23); format: cell-based, human; conditions: MDA-MB-231, in vitro
smiles,measurement,setting,value
"O=C1CC[C@H](N2Cc3c(OCc4ccc(CN5CCOCC5)cc4)cccc3C2=O)C(=O)N1 [CC220, Iberdomide]",degradation compared with dTAG,[1],more effective degradation of the targets even at low nanomolar CC220 concentrations
same,time of onset of loss of EGFP signal,Flag-HA-DCD23-EGFP; 2208L and PyMT,≤ 1 h
same,degradation of DCD23 tagged EGFP,"Flag-HA-DCD23-EGFP; 2208L and PyMT, 24 h, western blotting",efficiently degraded
same,DC50,Flag-HA-DCD23-EGFP; 2208L,2.7 nM
same,DCmax,Flag-HA-DCD23-EGFP; 2208L,88%
same,DC50,Flag-HA-DCD23-EGFP; PyMT,4.3 nM
same,DCmax,Flag-HA-DCD23-EGFP; PyMT,81%
same,c-MYC levels after washout,"cMYC-EGFP-DCD23; 10μM 4h, then drug washed out, 24h or 48h",restored back to pre-treatment levels
same,time to significant degradation of c-MYC tagged with DCD23,"cMYC-EGFP-DCD23; HMEC, 10uM",≤ 15 min
same,p21 levels after degradation of DCD23-tagged cMYC,"cMYC-EGFP-DCD23; HMEC, 10μM, 16h, western blotting",restoration of p21 levels
same,DC50,"cMYC-EGFP-DCD23; HMEC, 4h",2 nM
same,DCmax at 4h,"cMYC-EGFP-DCD23; HMEC, 4h",75%
same,cellular toxicity,[2],did not induce cellular toxicity
same,lowest concentration giving decrease in luciferase and EGFP signal,FLuc-EGFP-DCD23,≤ 0.05 µM
same,time to decrease in luciferase and EGFP signal,FLuc-EGFP-DCD23,≤ 3 h
